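Following 48 hours of exposure in 96-well plates, responses at five concentrations were used to interpolate endpoints linearly. Abbreviation: GI50, concentration required for 50% inhibition of growth. TGI: total growth inhibition.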
Legend:
Assay in all cases: NCI-60 cell line screen, 48 h
[1] = system: 786-0 renal
[2] = system: A498 renal
[3] = system: A549 NSCLC
[4] = system: ACHN renal
[5] = system: BT-549 breast
[6] = system: CAKI-1 renal
[7] = system: CCRF-CEM leukemia
[8] = system: COLO 205 colon
[9] = system: DU-145 prostate
[10] = system: EKVX NSCLC
[11] = system: HCC-2998 colon
[12] = system: HCT-116 colon
[13] = system: HCT-15 colon
[14] = system: HL-60(TB) leukemia
[15] = system: HOP-62 NSCLC
[16] = system: HOP-92 NSCLC
[17] = system: HS 578T breast
[18] = system: HT29 colon
[19] = system: IGROV1 ovarian
[20] = system: K-562 leukemia
[21] = system: KM12 colon
[22] = system: LOX IMVI melanoma
[23] = system: M14 melanoma
[24] = system: MALME-3M melanoma
[25] = system: MCF7 breast
[26] = system: MDA-MB-231 breast
[27] = system: MDA-MB-435
[28] = system: MOLT-4 leukemia
[29] = system: NCI-H226 lung
[30] = system: NCI-H23 lung
[31] = system: NCI-H460 lung
[32] = system: NCI-H522 lung
[33] = system: NCI/ADR-RES ovarian
[34] = system: OVCAR-3 ovarian
[35] = system: OVCAR-4 ovarian
[36] = system: OVCAR-5 ovarian
[37] = system: OVCAR-8 ovarian
[38] = system: PC-3 prostate
[39] = system: RPMI-8226 leukemia
[40] = system: RXF 393 renal
[41] = system: SF-268 CNS
[42] = system: SF-295 CNS
[43] = system: SF-539 CNS
[44] = system: SK-MEL-2 melanoma
[45] = system: SK-MEL-28 melanoma
[46] = system: SK-MEL-5 melanoma
[47] = system: SK-OV-3 ovarian
[48] = system: SN12C renal
[49] = system: SNB-19 CNS
[50] = system: SNB-75 CNS
[51] = system: SR leukemia
[52] = system: SW-620 colon
[53] = system: T-47D breast
[54] = system: TK-10 renal
[55] = system: U251 CNS
[56] = system: UACC-257 melanoma
[57] = system: UACC-62 melanoma
[58] = system: UO-31 renal

For `Cc1ccccc1C(C(=O)NC1CCCCC1)N(C(=O)CNc1ncccc1F)c1cccc(F)c1` (stereo unspecified), which GI50 [1] is on record?
The GI50 was 32.8 µM.

What about the TGI [1] of the same compound?
Its TGI is greater than 100 µM.

And the GI50 [2]?
Its GI50 is 49.6 µM.

What about the TGI [2] of the same compound?
Its TGI is greater than 100 µM.

What about the GI50 [3] of the same compound?
Its GI50 is greater than 100 µM.

And the TGI [3]?
Its TGI is greater than 100 µM.

What about the GI50 [4] of the same compound?
The GI50 was 49.8 µM.

What about the TGI [4] of the same compound?
Its TGI is greater than 100 µM.

And the GI50 [5]?
The GI50 was greater than 58.4 µM.

What about the TGI [5] of the same compound?
Its TGI is greater than 100 µM.

What about the GI50 [6] of the same compound?
The GI50 was greater than 53.1 µM.

And the TGI [6]?
The TGI was greater than 100 µM.

And the GI50 [7]?
Its GI50 is greater than 100 µM.

And the TGI [7]?
Its TGI is greater than 100 µM.

What about the GI50 [8] of the same compound?
Its GI50 is greater than 100 µM.

And the TGI [8]?
Its TGI is greater than 100 µM.

What about the GI50 [9] of the same compound?
The GI50 was greater than 100 µM.

What about the TGI [9] of the same compound?
Its TGI is greater than 100 µM.

What about the GI50 [10] of the same compound?
Its GI50 is greater than 100 µM.

And the TGI [10]?
Its TGI is greater than 100 µM.

And the GI50 [11]?
The GI50 was greater than 100 µM.

And the TGI [11]?
Its TGI is greater than 100 µM.

And the GI50 [12]?
The GI50 was 96.9 µM.

And the TGI [12]?
Its TGI is greater than 100 µM.

And the GI50 [13]?
Its GI50 is greater than 100 µM.

What about the TGI [13] of the same compound?
Its TGI is greater than 100 µM.

What about the GI50 [14] of the same compound?
The GI50 was greater than 100 µM.

What about the TGI [14] of the same compound?
The TGI was greater than 100 µM.

And the GI50 [15]?
Its GI50 is 14.8 µM.

What about the TGI [15] of the same compound?
Its TGI is greater than 64.3 µM.

And the GI50 [16]?
The GI50 was 13.9 µM.

What about the TGI [16] of the same compound?
The TGI was 62.4 µM.

And the GI50 [17]?
The GI50 was 27.2 µM.

And the TGI [17]?
Its TGI is greater than 100 µM.

And the GI50 [18]?
The GI50 was greater than 100 µM.

And the TGI [18]?
Its TGI is greater than 100 µM.

What about the GI50 [19] of the same compound?
Its GI50 is greater than 80 µM.

What about the TGI [19] of the same compound?
The TGI was greater than 100 µM.

And the GI50 [20]?
The GI50 was greater than 100 µM.

What about the TGI [20] of the same compound?
The TGI was greater than 100 µM.

And the GI50 [21]?
Its GI50 is greater than 100 µM.

And the TGI [21]?
Its TGI is greater than 100 µM.

And the GI50 [22]?
Its GI50 is greater than 100 µM.

And the TGI [22]?
The TGI was greater than 100 µM.

What about the GI50 [23] of the same compound?
The GI50 was greater than 100 µM.

And the TGI [23]?
Its TGI is greater than 100 µM.

And the GI50 [24]?
The GI50 was greater than 100 µM.

And the TGI [24]?
Its TGI is greater than 100 µM.

And the GI50 [25]?
The GI50 was greater than 100 µM.

And the TGI [25]?
Its TGI is greater than 100 µM.

What about the GI50 [26] of the same compound?
Its GI50 is 25.1 µM.

What about the TGI [26] of the same compound?
The TGI was greater than 100 µM.

What about the GI50 [27] of the same compound?
The GI50 was greater than 100 µM.

And the TGI [27]?
The TGI was greater than 100 µM.

And the GI50 [28]?
The GI50 was greater than 100 µM.

What about the TGI [28] of the same compound?
The TGI was greater than 100 µM.

What about the GI50 [29] of the same compound?
The GI50 was 38.3 µM.

And the TGI [29]?
The TGI was greater than 100 µM.

What about the GI50 [30] of the same compound?
The GI50 was greater than 57.8 µM.

What about the TGI [30] of the same compound?
The TGI was greater than 100 µM.

What about the GI50 [31] of the same compound?
The GI50 was greater than 100 µM.

What about the TGI [31] of the same compound?
Its TGI is greater than 100 µM.

What about the GI50 [32] of the same compound?
Its GI50 is 74.9 µM.

What about the TGI [32] of the same compound?
The TGI was greater than 100 µM.

And the GI50 [33]?
Its GI50 is greater than 100 µM.

And the TGI [33]?
The TGI was greater than 100 µM.

What about the GI50 [34] of the same compound?
Its GI50 is greater than 100 µM.

What about the TGI [34] of the same compound?
Its TGI is greater than 100 µM.

And the GI50 [35]?
Its GI50 is greater than 23.6 µM.

What about the TGI [35] of the same compound?
The TGI was greater than 100 µM.

And the GI50 [36]?
The GI50 was greater than 100 µM.

And the TGI [36]?
The TGI was greater than 100 µM.

What about the GI50 [37] of the same compound?
The GI50 was 19 µM.

What about the TGI [37] of the same compound?
Its TGI is greater than 100 µM.

What about the GI50 [38] of the same compound?
Its GI50 is greater than 100 µM.

What about the TGI [38] of the same compound?
The TGI was greater than 100 µM.

And the GI50 [39]?
The GI50 was greater than 100 µM.

And the TGI [39]?
Its TGI is greater than 100 µM.

What about the GI50 [40] of the same compound?
The GI50 was 4.72 µM.

What about the TGI [40] of the same compound?
The TGI was 20.1 µM.

What about the GI50 [41] of the same compound?
The GI50 was 48.7 µM.

What about the TGI [41] of the same compound?
Its TGI is greater than 100 µM.

And the GI50 [42]?
The GI50 was 20.6 µM.

And the TGI [42]?
The TGI was greater than 76.8 µM.

What about the GI50 [43] of the same compound?
The GI50 was 22.7 µM.

What about the TGI [43] of the same compound?
Its TGI is 81.7 µM.

What about the GI50 [44] of the same compound?
The GI50 was 28.9 µM.

And the TGI [44]?
The TGI was greater than 90.3 µM.

And the GI50 [45]?
The GI50 was greater than 100 µM.

And the TGI [45]?
Its TGI is greater than 100 µM.

And the GI50 [46]?
Its GI50 is greater than 100 µM.

And the TGI [46]?
Its TGI is greater than 100 µM.

What about the GI50 [47] of the same compound?
The GI50 was 20.8 µM.

What about the TGI [47] of the same compound?
Its TGI is greater than 61 µM.

What about the GI50 [48] of the same compound?
Its GI50 is greater than 79.9 µM.

What about the TGI [48] of the same compound?
Its TGI is greater than 100 µM.

And the GI50 [49]?
The GI50 was 17.2 µM.

What about the TGI [49] of the same compound?
Its TGI is greater than 87.3 µM.

And the GI50 [50]?
The GI50 was 6.14 µM.

What about the TGI [50] of the same compound?
The TGI was 24.6 µM.

And the GI50 [51]?
Its GI50 is greater than 100 µM.

And the TGI [51]?
Its TGI is greater than 100 µM.

What about the GI50 [52] of the same compound?
Its GI50 is greater than 100 µM.

What about the TGI [52] of the same compound?
Its TGI is greater than 100 µM.

What about the GI50 [53] of the same compound?
The GI50 was 60.8 µM.

What about the TGI [53] of the same compound?
The TGI was greater than 100 µM.

What about the GI50 [54] of the same compound?
The GI50 was greater than 56.4 µM.

And the TGI [54]?
Its TGI is greater than 100 µM.

What about the GI50 [55] of the same compound?
Its GI50 is 27.6 µM.

And the TGI [55]?
The TGI was greater than 100 µM.

And the GI50 [56]?
The GI50 was greater than 100 µM.

And the TGI [56]?
The TGI was greater than 100 µM.

What about the GI50 [57] of the same compound?
The GI50 was greater than 75.4 µM.

What about the TGI [57] of the same compound?
The TGI was greater than 100 µM.

And the GI50 [58]?
Its GI50 is greater than 100 µM.

What about the TGI [58] of the same compound?
The TGI was greater than 100 µM.

Source: PubChem BioAssay (NCI)
